The results in this text go back to patent US20250129070A1, “BIFUNCTIONAL ANDROGEN RECEPTOR COMPOUNDS” (priority 2023, published 2025).

One assay concerns AR / CBP ternary complex. In words: Ternary complex formation assay (sandwich ELISA, AR capture / CBP detection) in VCaP cell lysates. The format is cell-based. Conditions: 1.5 hours treatment, sandwich ELISA (AR capture, CBP or p300 detection). The method in brief: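 VCaP cells (50K/well, 5% charcoal-stripped FBS, ≥3 days) treated with bifunctional compound for 1.5 h, then lysed 30 min at 4 °C. AR captured on anti-AR (AR 441) plates; bound CBP or p300 detected by rabbit mAb plus HRP secondary. QuantaRed chemifluorescence read at ex 570/em 585, immediately and at 5 and 15 min.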
(In general: ELISA stands for enzyme-linked immunosorbent assay.)

A further assay deals with VCaP cells. In words: VCaP growth inhibition assay. The format is cell-based. The conditions noted are these: 30 pM R1881, 9 days, CTG. The method in brief: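 VCaP cells in phenol red-free DMEM/5% CSS, pre-incubated 72 h, then stimulated with R1881 (final 30 pM) and treated with 1:5 serial dilutions (final 100 nM to 10 fM) for 9 days at 37 °C. Viability by CellTiter-Glo luminescence; IC50 from 4-parameter logistic fit of RLU vs concentration.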

As usually defined, the EC50 is the concentration that produces a half-maximal response. A lower EC50 goes with greater potency. Usually IC50 stands for the concentration at which inhibition is half-maximal.

Some results are limits rather than exact numbers.

Molecule `Cn1cc(-c2cc3c(cc2C(F)F)N(c2cc(C4CCN(CC5CCN(c6ncc(C(=O)NC7C(C)(C)C(Oc8ccc(C#N)c(Cl)c8)C7(C)C)cn6)CC5)CC4)c4c(c2)n(C)c(=O)n4C)CCC3)cn1` (stereo not shown) [Compound 214, N-[3-(3-chloro-4-cyano-phenoxy)-2,2,4,4-tetramethyl-cyclobutyl]-2-[4-[[4-[6-[7-(difluoromethyl)-6-(1-methylpyrazol-4-yl)-3,4-dihydro-2H-quinolin-1-yl]-1,3-dimethyl-2-oxo-benzimidazol-4-yl]-1-piperidyl]methyl]-1-piperidyl]pyrimidine-5-carboxamide] had an EC50 with AR / CBP ternary complex below 1 nM. In addition, the IC50 in the assay with VCaP cells lay in the range of 1 to 100 nM.
In turn, `COc1cc(OC2C(C)(C)C(NC(=O)c3ccc(N4CC5(CCC(N6CCC(n7nc(N8CCCc9cc(-c%10cnn(C)c%10)c(C)cc98)c8c7CCN(C(C)=O)C8)CC6)CC5)C4)cc3)C2(C)C)ccc1C#N` (stereo not shown) [Compound 449, 4-[7-[4-[5-acetyl-3-[7-methyl-6-(1-methylpyrazol-4-yl)-3,4-dihydro-2H-quinolin-1-yl]-6,7-dihydro-4H-pyrazolo[4,3-c]pyridin-1-yl]-1-piperidyl]-2-azaspiro[3.5]nonan-2-yl]-N-[3-(4-cyano-3-methoxy-phenoxy)-2,2,4,4-tetramethyl-cyclobutyl]benzamide] registered an EC50 with AR / CBP ternary complex below 1 nM. In the assay on VCaP cells, this molecule registered an IC50 of 0.1 to 1 nM.
The corresponding values for `CC(=O)N1CCc2c(c(N3CCCc4cc(-c5cnn(C)c5)c(C(F)F)cc43)nn2C2CCN([C@@H]3CCN(c4ncc(C(=O)NC5C(C)(C)C(Oc6ccc(C#N)c(Cl)c6)C5(C)C)cn4)C3)CC2)C1` (stereo partly drawn) [Compound 335, 2-[(3R)-3-[4-[5-acetyl-3-[7-(difluoromethyl)-6-(1-methylpyrazol-4-yl)-3,4-dihydro-2H-quinolin-1-yl]-6,7-dihydro-4H-pyrazolo[4,3-c]pyridin-1-yl]-1-piperidyl]pyrrolidin-1-yl]-N-[3-(3-chloro-4-cyano-phenoxy)-2,2,4,4-tetramethyl-cyclobutyl]pyrimidine-5-carboxamide] are below 1 nM and 0.1 to 1 nM.
Molecule `COc1cc(OC2C(C)(C)C(NC(=O)c3ccc(N4CCC[C@H](N5CCC(n6nc(N7CCCc8cc(-c9cnn(C)c9)c(C(F)F)cc87)c7c6CCN(C(C)=O)C7)CC5)C4)cc3)C2(C)C)ccc1C#N` (stereo partly drawn) [Compound 399, 4-[(3S)-3-[4-[5-acetyl-3-[7-(difluoromethyl)-6-(1-methylpyrazol-4-yl)-3,4-dihydro-2H-quinolin-1-yl]-6,7-dihydro-4H-pyrazolo[4,3-c]pyridin-1-yl]-1-piperidyl]-1-piperidyl]-N-[3-(4-cyano-3-methoxy-phenoxy)-2,2,4,4-tetramethyl-cyclobutyl]benzamide] came in with an EC50 in the assay on AR / CBP ternary complex of 1 to 10 nM. In the assay with VCaP cells, this molecule displayed an IC50 of 1 to 100 nM.
Take `COc1cc(OC2C(C)(C)C(NC(=O)c3ccc(N4CC5(CCC(N6CCC(n7nc(N8CCCc9cc(C#N)c(C)cc98)c8c7CCN(C(C)=O)C8)CC6)CC5)C4)cc3)C2(C)C)ccc1C#N` (stereo not shown) [Compound 455, 4-[7-[4-[5-acetyl-3-(6-cyano-7-methyl-3,4-dihydro-2H-quinolin-1-yl)-6,7-dihydro-4H-pyrazolo[4,3-c]pyridin-1-yl]-1-piperidyl]-2-azaspiro[3.5]nonan-2-yl]-N-[3-(4-cyano-3-methoxy-phenoxy)-2,2,4,4-tetramethyl-cyclobutyl]benzamide]: in the assay on AR / CBP ternary complex, the EC50 was below 1 nM. The same molecule came in with an IC50 in the assay with VCaP cells of 0.1 to 1 nM.
For `CC(=O)N1CCc2c(c(N3CCCc4cc(-c5cnn(C)c5)c(C)cc43)nn2C2CCN(C3CCC4(CC3)CN(c3ncc(C(=O)NC5C(C)(C)C(Oc6ccc(C#N)c(C)c6)C5(C)C)cn3)C4)CC2)C1` (stereo not shown) [Compound 471, 2-[7-[4-[5-acetyl-3-[7-methyl-6-(1-methylpyrazol-4-yl)-3,4-dihydro-2H-quinolin-1-yl]-6,7-dihydro-4H-pyrazolo[4,3-c]pyridin-1-yl]-1-piperidyl]-2-azaspiro[3.5]nonan-2-yl]-N-[3-(4-cyano-3-methyl-phenoxy)-2,2,4,4-tetramethyl-cyclobutyl]pyrimidine-5-carboxamide], in that order: below 1 nM and 0.1 to 1 nM.
Molecule `CC(=O)N1CCc2c(c(N3CCCc4cc(-c5cnn(C)c5)c(C(F)F)cc43)nn2C2CCN(CC3CCN(c4ccc5c(n4)CN(C4C(C)(C)C(Oc6ccc(C#N)c(Cl)c6)C4(C)C)C5=O)CC3)CC2)C1` (stereo not shown) [Compound 296, 4-[3-[2-[4-[[4-[5-acetyl-3-[7-(difluoromethyl)-6-(1-methylpyrazol-4-yl)-3,4-dihydro-2H-quinolin-1-yl]-6,7-dihydro-4H-pyrazolo[4,3-c]pyridin-1-yl]-1-piperidyl]methyl]-1-piperidyl]-5-oxo-7H-pyrrolo[3,4-b]pyridin-6-yl]-2,2,4,4-tetramethyl-cyclobutoxy]-2-chloro-benzonitrile] registered an EC50 in the assay on AR / CBP ternary complex below 1 nM. Besides, the IC50 in the assay on VCaP cells is 0.1 to 1 nM.
`CC(=O)N1CCc2c(c(N3CCCc4cc(-c5cnn(C)c5)c(C(F)F)cc43)nn2C2CCN(CC3C(C)CN(c4ncc(C(=O)NC5C(C)(C)C(Oc6ccc(C#N)c(C)c6C)C5(C)C)cn4)CC3C)CC2)C1` (stereo not shown) [Compound 461, 2-[4-[[4-[5-acetyl-3-[7-(difluoromethyl)-6-(1-methylpyrazol-4-yl)-3,4-dihydro-2H-quinolin-1-yl]-6,7-dihydro-4H-pyrazolo[4,3-c]pyridin-1-yl]-1-piperidyl]methyl]-3,5-dimethyl-1-piperidyl]-N-[3-(4-cyano-2,3-dimethyl-phenoxy)-2,2,4,4-tetramethyl-cyclobutyl]pyrimidine-5-carboxamide]: the EC50 in the assay with AR / CBP ternary complex is below 1 nM. Further, the IC50 in the assay with VCaP cells was at most 0.1 nM.
The corresponding values for `CC(=O)N1CCc2c(c(N3CCCc4cc(-c5cnn(C)c5)ccc43)nn2C2CCN(CC3CCN(c4ncc(C(=O)NC5C(C)(C)C(Oc6ccc(C#N)c(Cl)c6)C5(C)C)cn4)CC3)CC2)C1` (stereo not shown) [Compound 24, 2-[4-[[4-[5-acetyl-3-[6-(1-methylpyrazol-4-yl)-3,4-dihydro-2H-quinolin-1-yl]-6,7-dihydro-4H-pyrazolo[4,3-c]pyridin-1-yl]-1-piperidyl]methyl]-1-piperidyl]-N-[3-(3-chloro-4-cyano-phenoxy)-2,2,4,4-tetramethyl-cyclobutyl]pyrimidine-5-carboxamide] are below 1 nM and 0.1 to 1 nM.
The molecule `CC(=O)N1CCc2c(c(N3CCCc4cc(-c5cnn(C)c5)c(C(F)(F)F)cc43)nn2C2CCN(CC3CCN(c4ncc(C(=O)NC5C(C)(C)C(Oc6ccc(C#N)c(Cl)c6)C5(C)C)cn4)CC3)CC2)C1` (stereo not shown) [Compound 27, 2-[4-[[4-[5-acetyl-3-[6-(1-methylpyrazol-4-yl)-7-(trifluoromethyl)-3,4-dihydro-2H-quinolin-1-yl]-6,7-dihydro-4H-pyrazolo[4,3-c]pyridin-1-yl]-1-piperidyl]methyl]-1-piperidyl]-N-[3-(3-chloro-4-cyano-phenoxy)-2,2,4,4-tetramethyl-cyclobutyl]pyrimidine-5-carboxamide] showed an EC50 in the assay with AR / CBP ternary complex below 1 nM. Besides, the IC50 in the assay with VCaP cells was in the range of 0.1 to 1 nM.
The corresponding values for `COc1cc(OC2C(C)(C)C(NC(=O)c3ccc(N4CC(OC5CCC(n6nc(N7CCCc8cc(-c9cnn(C)c9)c(C(F)F)cc87)c7c6CCN(C(C)=O)C7)CC5)C4)cc3)C2(C)C)ccc1C#N` (stereo not shown) [Compound 342, 4-[3-[4-[5-acetyl-3-[7-(difluoromethyl)-6-(1-methylpyrazol-4-yl)-3,4-dihydro-2H-quinolin-1-yl]-6,7-dihydro-4H-pyrazolo[4,3-c]pyridin-1-yl]cyclohexoxy]azetidin-1-yl]-N-[3-(4-cyano-3-methoxy-phenoxy)-2,2,4,4-tetramethyl-cyclobutyl]benzamide] are below 1 nM and 0.1 to 1 nM.
As for `CC(=O)N1CCc2c(c(N3CCCc4cc(-c5cnn(C)c5)c(C(F)F)cc43)nn2C2CCC(C3CCC4(CC3)CN(c3ncc(C(=O)NC5C(C)(C)C(Oc6ccc(C#N)c(Cl)c6)C5(C)C)cn3)C4)CC2)C1` (stereo not shown) [Compound 379, 2-[7-[4-[5-acetyl-3-[7-(difluoromethyl)-6-(1-methylpyrazol-4-yl)-3,4-dihydro-2H-quinolin-1-yl]-6,7-dihydro-4H-pyrazolo[4,3-c]pyridin-1-yl]cyclohexyl]-2-azaspiro[3.5]nonan-2-yl]-N-[3-(3-chloro-4-cyano-phenoxy)-2,2,4,4-tetramethyl-cyclobutyl]pyrimidine-5-carboxamide], the EC50 in the assay on AR / CBP ternary complex lay within 1 to 10 nM. The IC50 with VCaP cells lay within 1 to 100 nM.
For `COc1cc(OC2C(C)(C)C(NC(=O)c3ccc(N4CCN(C5CCN(c6ccc(-c7cc8cccc(-c9nn(C%10CCOCC%10)c%10c9CN(C(C)=O)CC%10)c8cn7)cn6)CC5)CC4)cc3)C2(C)C)ccc1C#N` (stereo not shown) [Compound 321, 4-[4-[1-[5-[8-(5-acetyl-1-tetrahydropyran-4-yl-6,7-dihydro-4H-pyrazolo[4,3-c]pyridin-3-yl)-3-isoquinolyl]-2-pyridyl]-4-piperidyl]piperazin-1-yl]-N-[3-(4-cyano-3-methoxy-phenoxy)-2,2,4,4-tetramethyl-cyclobutyl]benzamide], in that order: below 1 nM and at most 0.1 nM.
For `CC(=O)N1CCc2c(c(N3CCCc4cc(-c5cnn(C)c5)c(C(F)F)cc43)nn2C2CCN(Cc3cn(Cc4ncc(C(=O)NC5C(C)(C)C(Oc6ccc(C#N)c(Cl)c6)C5(C)C)cn4)nn3)CC2)C1` (stereo not shown) [Compound 188, 2-[[4-[[4-[5-acetyl-3-[7-(difluoromethyl)-6-(1-methylpyrazol-4-yl)-3,4-dihydro-2H-quinolin-1-yl]-6,7-dihydro-4H-pyrazolo[4,3-c]pyridin-1-yl]-1-piperidyl]methyl]triazol-1-yl]methyl]-N-[3-(3-chloro-4-cyano-phenoxy)-2,2,4,4-tetramethyl-cyclobutyl]pyrimidine-5-carboxamide], in that order: below 1 nM and at most 0.1 nM.
